{"source": "patent US12258329B2", "about": "(Merck Sharp & Dohme LLC, priority 2018, dated 2025)"}
{"tested_on": "infected PBMCs (VSV-G pseudotyped HIV virus VSV-G/pNLG1-P2A-ΔEnv)", "test": "cells", "type": "cell-based, human", "details": "Homo sapiens, PBMC, read-out: TACK EC50", "units": {"EC50": "µM"}}
{"smiles": "Cc1nc(N)c(Cn2cnc(C(F)(F)C(F)(F)F)c(Oc3cc(Cl)cc(C#N)c3F)c2=O)c(=O)[nH]1", "note": "[Example 38, 3-((1-((4-amino-2-methyl-6-oxo-1,6-dihydropyrimidin-5-yl)methyl)-6-oxo-4-(perfluoroethyl)-1,6-dihydropyrimidin-5-yl)oxy)-5-chloro-2-fluorobenzonitrile]", "EC50": 0.481}
{"smiles": "Cc1nc(N)c(Cn2cnc(C(F)(F)C(F)F)c(Oc3cc(Cl)cc(C#N)c3F)c2=O)c(=O)[nH]1", "note": "[Example 39, 3-((1-((4-amino-2-methyl-6-oxo-1,6-dihydropyrimidin-5-yl)methyl)-6-oxo-4-(1,1,2,2-tetrafluoroethyl)-1,6-dihydropyrimidin-5-yl)oxy)-5-chloro-2-fluorobenzonitrile]", "EC50": 0.265}
{"smiles": "Cc1cc(C#N)c(F)c(Oc2c(C(F)(F)C(F)F)ncn(Cc3c(C)nc(C)[nH]c3=O)c2=O)c1", "note": "[Example 40, 3-((1-((2,4-dimethyl-6-oxo-1,6-dihydropyrimidin-5-yl)methyl)-6-oxo-4-(1,1,2,2-tetrafluoroethyl)-1,6-dihydropyrimidin-5-yl)oxy)-2-fluoro-5-methylbenzonitrile]", "EC50": 0.198}
{"smiles": "Cc1cc(C#N)c(F)c(Oc2c(C(C)(F)F)ncn(Cc3c(C)nc(C)[nH]c3=O)c2=O)c1", "note": "[Example 41, 3-((4-(1,1-difluoroethyl)-1-((2,4-dimethyl-6-oxo-1,6-dihydropyrimidin-5-yl)methyl)-6-oxo-1,6-dihydropyrimidin-5-yl)oxy)-2-fluoro-5-methylbenzonitrile]", "EC50": 0.363}
{"smiles": "CCc1cc(C#N)c(F)c(Oc2c(C(F)(F)C(F)F)ncn(Cc3c(C)nc(C)[nH]c3=O)c2=O)c1", "note": "[Example 42, 3-((1-((2,4-dimethyl-6-oxo-1,6-dihydropyrimidin-5-yl)methyl)-6-oxo-4-(1,1,2,2-tetrafluoroethyl)-1,6-dihydropyrimidin-5-yl)oxy)-5-ethyl-2-fluorobenzonitrile]", "EC50": 0.308}
{"smiles": "Cc1nc(CO)[nH]c(=O)c1Cn1cnc(C(F)(F)C(F)F)c(Oc2cc(Cl)cc(C#N)c2F)c1=O", "note": "[Example 45, 5-chloro-2-fluoro-3-((1-((2-(hydroxymethyl)-4-methyl-6-oxo-1,6-dihydropyrimidin-5-yl)methyl)-6-oxo-4-(1,1,2,2-tetrafluoroethyl)-1,6-dihydropyrimidin-5-yl)oxy)benzonitrile]", "EC50": 0.257}
{"smiles": "Cc1c(C#N)cc(C(F)F)cc1Oc1c(C(F)(F)C(F)F)ncn(Cc2cnc(CCCO)[nH]c2=O)c1=O", "note": "[Example 46, 5-(difluoromethyl)-3-((1-((2-(3-hydroxypropyl)-6-oxo-1,6-dihydropyrimidin-5-yl)methyl)-6-oxo-4-(1,1,2,2-tetrafluoroethyl)-1,6-dihydropyrimidin-5-yl)oxy)-2-methylbenzonitrile]", "EC50": 0.303}
{"smiles": "Cc1c(C#N)cc(C(F)F)cc1Oc1c(C(F)(F)C(F)F)ncn(Cc2cnc(-c3cnn(C)c3)[nH]c2=O)c1=O", "note": "[Example 47, 5-(difluoromethyl)-2-methyl-3-((1-((2-(1-methyl-1H-pyrazol-4-yl)-6-oxo-1,6-dihydropyrimidin-5-yl)methyl)-6-oxo-4-(1,1,2,2-tetrafluoroethyl)-1,6-dihydropyrimidin-5-yl)oxy)benzonitrile]", "EC50": 0.394}
{"smiles": "Cc1nc(CO)[nH]c(=O)c1Cn1cnc(C(F)(F)C(F)F)c(Oc2cc(C(F)F)cc(C#N)c2C)c1=O", "note": "[Example 48, 5-(difluoromethyl)-3-((1-((2-(hydroxymethyl)-4-methyl-6-oxo-1,6-dihydropyrimidin-5-yl)methyl)-6-oxo-4-(1,1,2,2-tetrafluoroethyl)-1,6-dihydropyrimidin-5-yl)oxy)-2-methylbenzonitrile]", "EC50": 0.342}
{"smiles": "Cc1nc(CCCO)[nH]c(=O)c1Cn1cnc(C(F)(F)C(F)F)c(Oc2cc(C(F)F)cc(C#N)c2C)c1=O", "note": "[Example 49, 5-(difluoromethyl)-3-((1-((2-(3-hydroxypropyl)-4-methyl-6-oxo-1,6-dihydropyrimidin-5-yl)methyl)-6-oxo-4-(1,1,2,2-tetrafluoroethyl)-1,6-dihydropyrimidin-5-yl)oxy)-2-methylbenzonitrile]", "EC50": 0.278}
{"smiles": "Cc1cc(C#N)cc(C)c1Oc1c(C(F)(F)C(F)F)ncn(Cc2c(C)nc(CCCO)[nH]c2=O)c1=O", "note": "[Example 50, 4-((1-((2-(3-hydroxypropyl)-4-methyl-6-oxo-1,6-dihydropyrimidin-5-yl)methyl)-6-oxo-4-(1,1,2,2-tetrafluoroethyl)-1,6-dihydropyrimidin-5-yl)oxy)-3,5-dimethylbenzonitrile]", "EC50": 0.25}
{"smiles": "COCc1nc(C)c(Cn2cnc(C(F)(F)C(F)F)c(Oc3cc(C(F)F)cc(C#N)c3C)c2=O)c(=O)[nH]1", "note": "[Example 51, 5-(difluoromethyl)-3-((1-((2-(methoxymethyl)-4-methyl-6-oxo-1,6-dihydropyrimidin-5-yl)methyl)-6-oxo-4-(1,1,2,2-tetrafluoroethyl)-1,6-dihydropyrimidin-5-yl)oxy)-2-methylbenzonitrile]", "EC50": 0.395}
{"smiles": "COCCCc1nc(C)c(Cn2cnc(C(F)(F)C(F)(F)F)c(Oc3cc(Cl)cc(C#N)c3F)c2=O)c(=O)[nH]1", "note": "[Example 55, 5-chloro-2-fluoro-3-((1-((2-(3-methoxypropyl)-4-methyl-6-oxo-1,6-dihydropyrimidin-5-yl)methyl)-6-oxo-4-(perfluoroethyl)-1,6-dihydropyrimidin-5-yl)oxy)benzonitrile]", "EC50": 0.276}
{"smiles": "COC(=O)CCc1nc(C)c(Cn2cnc(C(F)(F)C(F)(F)F)c(Oc3cc(Cl)cc(C#N)c3F)c2=O)c(=O)[nH]1", "note": "[Example 56, Methyl 3-(5-((5-(5-chloro-3-cyano-2-fluorophenoxy)-6-oxo-4-(perfluoroethyl)pyrimidin-1 (6H)-yl)methyl)-4-methyl-6-oxo-1,6-dihydropyrimidin-2-yl)propanoate]", "EC50": 0.161}
{"smiles": "Cc1c(C#N)cc(C(F)F)cc1Oc1c(C(F)(F)C(F)F)ncn(Cc2cnc(N)[nH]c2=O)c1=O", "note": "[Example 57, 3-((1-((2-amino-6-oxo-1,6-dihydropyrimidin-5-yl)methyl)-6-oxo-4-(1,1,2,2-tetrafluoroethyl)-1,6-dihydropyrimidin-5-yl)oxy)-5-(difluoromethyl)-2-methylbenzonitrile]", "EC50": 0.493}
{"smiles": "Cc1nc(N)c(Cn2cnc(C(C)(F)F)c(Oc3cc(Cl)cc(C#N)c3F)c2=O)c(=O)[nH]1", "note": "[Example 58, 3-((1-((4-amino-2-methyl-6-oxo-1,6-dihydropyrimidin-5-yl)methyl)-4-(1,1-difluoroethyl)-6-oxo-1,6-dihydropyrimidin-5-yl)oxy)-5-chloro-2-fluorobenzonitrile]", "EC50": 0.252}
{"smiles": "Cc1nc(N)c(Cn2cnc(C(F)(F)C(F)F)c(Oc3cc(C(F)F)cc(C#N)c3C)c2=O)c(=O)[nH]1", "note": "[Example 59, 3-((1-((4-amino-2-methyl-6-oxo-1,6-dihydropyrimidin-5-yl)methyl)-6-oxo-4-(1,1,2,2-tetrafluoroethyl)-1,6-dihydropyrimidin-5-yl)oxy)-5-(difluoromethyl)-2-methylbenzonitrile]", "EC50": 0.135}
{"smiles": "Cc1nc(N)c(Cn2cnc(C(F)(F)F)c(Oc3cc(C(F)F)cc(C#N)c3C)c2=O)c(=O)[nH]1", "note": "[Example 60, 3-((1-((4-amino-2-methyl-6-oxo-1,6-dihydropyrimidin-5-yl)methyl)-6-oxo-4-(trifluoromethyl)-1,6-dihydropyrimidin-5-yl)oxy)-5-(difluoromethyl)-2-methylbenzonitrile]", "EC50": 0.228}
